Results from a melting point compilation (Tetko et al.; mined from patent text by program, amines drawn as free bases though some values may be those of a salt).

Work on `CCOC(=O)O[C@H](CCCc1ccc(OCc2nc(-c3ccccc3)sc2C)cc1)C(N)=O` yielded a melting point of 130 to 131 °C. Compound `CC(C)CC1(C(CCN2C(=O)c3cccc(F)c3C2=O)C(=O)NO)CCN(CCc2ccccc2)C1=O` (stereo not drawn) has a melting point of 145 to 146 °C. With `COCCCN1CCC(CNC(=O)c2cc(Cl)c(N)n3cc(C)nc23)CC1` the melting point was 167 °C. `Cc1cn2nc(-c3ccccc3)nc2cc1NC(=O)c1c(C(=O)N2CCC2)cnn1C` gave a melting point of 226 to 228 °C. With `CCOC(=O)C1=C(COCc2nc(CCN3C(=O)c4ccccc4C3=O)cs2)NC(C)=C(C(=O)OC)C1c1ccccc1Cl` (stereo not drawn) the melting point was 156 to 157 °C. With `Cc1nc2ncnn2c2c1CCN2CC(C)C` the melting point was 143 to 145 °C. For `CC(=O)NC[C@H]1CN(c2ccc(N3CCC(=C(C#N)Cc4ccccc4)CC3)c(F)c2)C(=O)O1`, the melting point was 98 to 100 °C. Work on `CC(=O)Nc1nc(OCc2cccs2)ncc1F` yielded a melting point of 134 to 136 °C. `O=C(NCCCc1c[nH]c2ccc(OCc3ccc4ccccc4n3)cc12)OCc1ccccc1` gave a melting point of 109 to 111 °C. Work on `CCCCN1N=C(c2ccc3c(c2)C(C)(C)CC(=O)N3C)C(C)CC1=O` (stereo not drawn) yielded a melting point of 137 to 139 °C. With `CC=NOCc1nc2c(N)nc(C)c(C)c2n1CCCCNC(=O)c1ccccc1` the melting point was 192 to 194 °C. Compound `CCCCCC(O)CCCN(Cc1cccc(C=CC(=O)O)c1)S(C)(=O)=O` (stereo not drawn) has a melting point of 105 °C. For `CCCN(C1=C(O)CC(C2CCCC2)(C2CCCC2)OC1=O)c1cccc(NS(=O)(=O)c2cccs2)c1`, the melting point was 92 to 95 °C. For `Cc1onc(NS(=O)(=O)c2cccc([N+](=O)[O-])c2)c1Br`, the melting point was 137 to 139 °C. With `CC(=O)NC1CCc2[nH]c3c(F)cc(F)cc3c2C1` (stereo not drawn) the melting point was 179 to 183 °C. For `CC(C)(C)c1cc(CN(c2cccnc2)S(=O)(=O)c2cccc([N+](=O)[O-])c2)cc(C(C)(C)C)c1O`, the melting point was 99 to 107 °C. Compound `COc1ccc2c(c1)SCCC2=O` has a melting point of 49 to 51 °C. For `COc1ccc2ccc(-c3ccccc3)cc2c1`, the melting point was 65.4 to 66.3 °C. In the case of `CCC(=O)N1C(=O)OC(C)(C)[C@@H]1Cc1ccccc1`, the melting point was 61 °C. `Cc1cc(=O)c(-c2ccc(Oc3ccc(S(C)(=O)=O)cc3)cc2)c(C)o1` gave a melting point of 170 to 173 °C. Work on `Cc1cc(O)c2ccccc2c1OCc1ccccc1` yielded a melting point of 159 to 161 °C. `O=C1c2nc(O)ccc2C(=O)c2c(-c3ccccc3NC(=O)C(F)(F)F)ccnc21` showed a melting point of over 260 °C. With `FC(F)C(F)(F)Oc1cccc(Nc2nccc(-c3ccc(Cl)cc3)n2)c1` the melting point was 133 to 135 °C. Compound `CC(SCCS(=O)(=O)N(C)C)c1ccc2c(c1)OCO2` (stereo not drawn) has a melting point of 93 to 94.5 °C. `OCc1cc(OCc2ccccc2)c(OCc2ccccc2)cn1` gave a melting point of 96.6 °C. In the case of `CCCN1Cc2cscc2Nc2ccccc21`, the melting point was 78 to 79 °C. Compound `Nc1ccc(S(=O)(=O)c2cc(Cl)nc(N3CCCC3)c2)cc1` has a melting point of 225 to 226 °C. With `NNC(=O)CCSCCOC1OC(CO)C(O)C(O)C1O` (stereo not drawn) the melting point was 178 to 179 °C. `CC1(C)OC(=O)C(Oc2cccc(N)n2)=C1c1ccc(S(C)(=O)=O)cc1` showed a melting point of 165 to 166 °C. For `CN1C2CCCC1CN(c1ccc(C#Cc3ccc(N)cc3)cc1)C2`, the melting point was 191 °C. Work on `Cc1cc(Cc2ccccc2)c(NC(=O)OCc2ccccc2)c(=O)n1CC(=O)O` yielded a melting point of 158 to 160 °C. Work on `CC12CC(=O)C3C(CCC4CC(=O)CCC43C)C1CCC2C(=O)CO` (stereo not drawn) yielded a melting point of 164 to 170 °C. Compound `CCOC(=O)C(=O)c1cn(CCN2CCOCC2)c2ccccc12` has a melting point of 99 to 100 °C. For `CC(C)(Oc1ccc(CC(=O)Nc2ccc(F)cc2)cc1)C(=O)O`, the melting point was 198 °C. `O=C1c2[nH]c3cc(Cl)ccc3c2Oc2ccccc2N1Cc1ccccc1` gave a melting point of 259 to 261 °C. For `Cc1ccc(C2CC(=O)c3c(C)coc3C2)cc1` (stereo not drawn), the melting point was 113 to 114 °C. Work on `CNCCOc1ccc(C=CC(=O)N2CCc3c([nH]c4ccccc34)C2c2ccc3c(c2)CCO3)cc1` (stereo not drawn) yielded a melting point of 145 °C. For `O=C(Nc1noc2ccccc12)N1CCN(c2nc(-c3ccccc3)ns2)CC1`, the melting point was 234 to 235 °C. In the case of `COc1nc(Cl)ccc1C(=O)O`, the melting point was 210 to 215 °C. For `CC(C)Oc1cc(-n2c(=O)c3c(n(C)c2=O)CCC3)c(F)cc1Cl`, the melting point was 105 to 107 °C. Work on `CCOC(=O)c1cc(-c2ocnc2C)[nH]n1` yielded a melting point of 131 to 133 °C. In the case of `O=C(CCCCl)Nc1n[nH]c2cc(Cl)ccc12`, the melting point was 220 °C. For `Cc1oc(-c2ccccc2)nc1CCSc1ccc(C=O)cc1`, the melting point was 74 to 76 °C. `COc1nc(OC)nc(N(C(=O)Oc2ccccc2)C(=O)Oc2ccccc2)n1` showed a melting point of 125 °C. Compound `COc1ccc([C@@H]2Sc3ccccc3N(CCN(C)C)C(=O)[C@@H]2O)cc1` (relative stereo) has a melting point of 88 to 90 °C. In the case of `CCC(=O)c1ccc2c(c1)C(C(Cl)(Cl)Cl)OC(C(Cl)(Cl)Cl)O2` (stereo not drawn), the melting point was 96 to 97 °C. Compound `Brc1ccccc1C=Cc1ccco1` has a melting point of 108 to 110 °C. `COC(=O)O[C@@H]1[C@@H](c2ccccc2)Nc2c(ccn3c(C)c(C)nc23)[C@H]1OC` gave a melting point of 90 to 91 °C. With `CN1CCN(c2ccc(Nc3ncc4cc5ccccc5n4n3)cc2)CC1` the melting point was 217 to 222 °C. For `Clc1ccc2ccc(/C=C/c3cccc(CN4CCc5cccc(CCc6nnn[nH]6)c54)c3)nc2c1`, the melting point was 141 to 144 °C. `Cn1c([N+](=O)[O-])cnc1-c1nc(Cl)c2ccccc2n1` showed a melting point of 178 to 181 °C. `CC(C)c1cc2c(c(C(C)C)c1)Oc1ccc(C(N)=O)cc1N(CCN(C)C)C2=O` gave a melting point of 223 to 225 °C. Work on `CCc1ccc(C(=O)C=CN(C)C)cc1` yielded a melting point of 80 to 81 °C. With `O=[N+]([O-])c1cn2c(n1)O[C@@H](COc1ccc(N3CCC(COc4ccc(C(F)(F)F)cc4)CC3)cc1)C2` the melting point was 175 to 180 °C. Compound `COc1ccc(-c2c(C(N)=O)n(C)c(=O)c3ncccc23)cc1` has a melting point of over 310 °C. With `COc1cc(OC)c2c(=O)[nH]c(-c3cc(-c4ccc(S(C)=O)cc4)cs3)nc2c1` (stereo not drawn) the melting point was over 300 °C. `CCOC(=O)C1=C(C)NC(c2ccc(OC)cc2)=C(C(=O)OCC)C1c1cccc([N+](=O)[O-])c1` (stereo not drawn) showed a melting point of 166 to 167 °C. In the case of `CCn1cc(C(=O)O)c(=O)c2cc(F)c(N3CCN(S(=O)(=O)c4ccc(N)cc4)CC3)cc21`, the melting point was 283 to 284 °C. In the case of `CC(C)n1nc(-c2ncc(O)nc2-c2ccccc2)ccc1=O`, the melting point was 225 to 227 °C. Work on `COC(=O)c1ccc(C(=O)c2ccc(NC(C)=O)cc2)cc1` yielded a melting point of 212 °C. For `O=C(O)COc1ccc2cc(-c3cnc(Cc4ccc5ccccc5c4)o3)ccc2c1`, the melting point was 258 to 260 °C. Work on `N#Cc1ccc(N(Cc2ccc(OCc3ccccc3)cc2)n2cnnc2)cc1-c1ccc(C(F)(F)F)cc1` yielded a melting point of 173 to 175 °C. Work on `CNC(=NC#N)NCCSCc1cc(C)c(CN(C)C)o1` yielded a melting point of 86 to 88 °C. `CCOC(=O)Nn1cccc1` showed a melting point of 60 to 61 °C. With `CC(C)(F)CC(=O)c1cc(C(C)(C)C)c(O)c(C(C)(C)C)c1` the melting point was 94 °C. Compound `Cc1ccc(-c2nc(C(=O)Nc3nnn[nH]3)c(C)s2)s1` has a melting point of 278 to 280 °C. With `Fc1cc(F)c2oc(CCC#Cc3ccccn3)nc2c1` the melting point was 93.5 to 94 °C. Compound `CC(=O)c1c(-c2ccc(F)cc2)nn(CC2CC2)c(=O)c1Nc1cccc2cccnc12` has a melting point of 150 to 151 °C. Work on `COC(=O)c1cccc(-c2nc(C(=O)c3ccc(N)c(C(=O)OC)c3)n3ccccc23)c1` yielded a melting point of 203 °C. `CC(=O)Nc1ccc(CNc2n[nH]c(N=CN(C)C)c2C#N)cc1` gave a melting point of 206 to 211 °C. In the case of `CCc1cc2c(=O)n3cc(C(N)=O)ccc3nc2s1`, the melting point was 278 to 280 °C. With `CCCC(CO)(CCC)N(OC(C)c1ccccc1)C(C)(C)CO` (stereo not drawn) the melting point was 88 to 92 °C. `COC=C(C(=O)OC)c1scnc1COc1ccccc1` gave a melting point of 133 °C. With `Cc1cc(-c2ccc(Cl)cc2)cn2c(-c3nc(-c4ccc(S(N)(=O)=O)s4)no3)cnc12` the melting point was 271 °C. Work on `OCC(OC1CCCCO1)c1ccc2sccc2c1` (single isomer, unassigned; (-)) yielded a melting point of 62 to 77 °C. For `Oc1ccc(CCc2cc(O)c(O)c(O)c2)cc1`, the melting point was 180 to 188 °C. Compound `O=C(Nc1ccccc1)Nc1[nH]c2ccccc2c1-c1ccccc1` has a melting point of 210 to 212 °C. With `O=C(C1CCCCC1)N1CC(=O)N(CCc2ccccc2)C(O)C1` (stereo not drawn) the melting point was 134 °C. Compound `COc1ccc(C(=O)Nc2ccc(F)cc2)cc1N([N+](=O)[O-])S(=O)(=O)c1ccccc1` has a melting point of 221 to 240 °C. In the case of `COC(=O)N[C@@H](C)CNc1nccc(-c2cn(C(C)C)nc2-c2cc(Cl)cc(NS(C)(=O)=O)c2F)n1`, the melting point was 150 to 152 °C. Compound `O=[N+]([O-])c1ccc(S(=O)(=O)Nc2ccc(O)cc2)cc1` has a melting point of 197 to 198 °C. `CN(C)Cc1noc(-c2nn(Cc3ccccc3)c3ccccc23)n1` gave a melting point of 93 to 95 °C. `O=C1NC(=O)C(N2C(=O)c3ccccc3C2=O)CC1O` (stereo not drawn) gave a melting point of 195 to 230 °C. In the case of `COc1ccc2c(n1)CC(=O)N2CCCO`, the melting point was 121 to 122 °C. Work on `Cc1cc(C)cc(Sc2c(CO)nc(C)n2C)c1` yielded a melting point of 198 to 199 °C. Compound `N#Cc1cccc(C2=Nc3cc(CO)c(C#Cc4ccccc4)cc3NC(=O)C2)c1` has a melting point of over 255 °C. Compound `CCCCNC(=O)Oc1ccc(Oc2ccc(C)cc2)cc1` has a melting point of 64 to 66 °C. `NCc1nnc2n1-c1ccc(Cl)cc1C(c1ccccc1F)=CC2` showed a melting point of 188 to 190 °C. Work on `Clc1ccc(O[C@@H]2CCNC[C@H]2c2ccccc2)cc1` (relative stereo) yielded a melting point of 102 to 103 °C. In the case of `N#CCCCCC(=O)c1ccc(Br)cc1`, the melting point was 47 to 48 °C. `COC(=O)Nc1ccc(CC(=O)Nc2cccc3c2C(=O)c2c-3n[nH]c2-c2ccc(OC)cc2)cc1` showed a melting point of 257 °C. In the case of `CCCc1nc2c(N)nc3ccccc3c2n1CC(OCC)OCC`, the melting point was 148 to 150 °C. For `CCOP(=O)(Cc1ccc(-c2ccccc2)cc1)OCC`, the melting point was 55 to 58 °C. In the case of `COc1ccc(Sc2ncccc2C(=O)NCC23CC4CC(CC(C4)C2)C3)cc1`, the melting point was 130 to 131 °C. With `COc1cc(NC(=O)Nc2cccc3c2C2CC(O)CCN2C3=O)nc2ccccc12` (stereo not drawn) the melting point was over 260 °C. Compound `Cc1cc2nc(C)c(CCCl)c(=O)n2o1` has a melting point of 165 °C. Work on `COc1ccc2c(c1)C(C(=O)N(Cc1ccc(Br)cc1)c1ccc(C(C)C)cc1)CCC2` (stereo not drawn) yielded a melting point of 85 °C. In the case of `CCCCc1nc2c(C)cnc(C(=O)O)c2n1Cc1ccc(-c2ccccc2-c2nnn[nH]2)cc1`, the melting point was 159 to 161 °C.
